Measurements: patent US8741871B2, “Trehalose compound, method for producing same, and pharmaceutical product containing the compound” (priority 2008, dated 2014)

Tests used:
THP-1 cells [1] = experiment: Analysis of cytotoxicity to THP-1 cells using trypan blue; type: cell-based, human; details: treated for 2 hours and for 24 hours; FIG. 10
Description: The cultured THP-1 cells were transferred into a 50-ml centrifuge tube in a clean bench. The cells were then centrifuged at 1,000 rpm for 5 minutes at 20° C., and the supernatant was then removed. […] 10 μl of this cell suspension was added to a sterile Eppendorf tube, to which 990 μl of serum-free RPMI 1640 medium had previously been added, so that the solution was 100-fold diluted. The number of cells in 10 μl of the 100-fold diluted solution was counted with a blood cell counter, and the cell suspension was diluted with serum-free RPMI 1640 medium to a cell density of 1×10^7 cells/ml.
A test compound (Example 9)/DMSO solution, or DMSO was added to 100 μl of RPMI medium to a concentration of 200 μM. Thereafter, ultrasonic wave was applied to the mixture for 5 seconds. It is to be noted that a test compound, 6-O-(2-decyldecanoyl)-α-glucose (hereinafter referred to as a “control compound B”), and TDCM were used to prepare positive controls in the same manner as described above. In addition, a negative control was prepared by adding no test compounds (vehicle). […] Subsequently, 20 μl of 0.3% trypan blue/PBS (−) was added to the reaction solution so as to suspend the reaction solution therein, and thereafter, the survival rate of the cells was immediately analyzed using a cell number measuring apparatus (CYRORECON).

THP-1 cells [2] = experiment: Measurement of IL-8 released from THP-1 cells (ELISA); type: cell-based, human; details: 50 μM test compound, two hours; FIG. 5
Description: An RPMI medium solution was prepared in the same manner as described above. Using this medium solution, an RPMI medium solution of the test compound was prepared as follows.
1.0 mg of the test compound was dissolved in 25 μl of DMSO by an ultrasonic treatment for approximately 1 minute. The thus obtained 40 mM test compound stock solution was added to 100 μl of RPMI medium to a final concentration of 50 μM. […] In the case of preparing the vehicle used as a control, instead of the 40 mM test compound stock solution, only the solvent was added in the same amount as described above to the RPMI medium, and it was then treated with ultrasonic wave for 5 seconds.
THP-1 cells (purchased from Cell Bank, RIKEN BioResource Center) were added to an RPMI medium to a cell density of 1.0×10^6 cells/100 μl and 100 μl each of the obtained solution was dispensed into a sterile Eppendorf tube. 100 μl of the RPMI medium solution of the test compound as prepared above was treated with ultrasonic wave for 5 seconds, and the total amount of the solution was then added to the Eppendorf tube, into which the cells had been dispensed. Two hours later, the reacted Eppendorf tube was centrifuged at 5000 rpm for 5 minutes, and the amount of IL-8 released into the supernatant was then measured using ELISA kit (human IL-8 ELISA kit (R & D Systems (trademark)).

[3] = test system: mouse intraperitoneal macrophages; experiment: Measurement of active oxygen released from mouse intraperitoneal macrophages (H2DCFDA fluorescence); type: cell-based; details: 50 μM test compound, one hour; FIG. 1
Description: 3 ml of 5% thioglycolate medium (Difco, BD, code. 225640, Lot. 6192372) was administered into the abdominal cavity of a mouse (ICR mouse (SPF), 5-week-old, male). Four days after the administration, the mouse was sacrificed with the use of diethyl ether. […] This operation was repeatedly carried out two times. […] Thereafter, the number of macrophages was counted with One Cell Counter (Wakenyaku Co., Ltd.). The obtained macrophages were diluted with an RPMI-1640 medium to have any given concentration. The thus obtained mouse intraperitoneal macrophages were used in the subsequent test.
0.7 g of BSA was weighed into a large test tube. […] Subsequently, protein was quantified using Nano Drop ND-1000, and it was then diluted with sterilized PBS (−) so as to result in a final concentration of 2%. […]
After the macrophages had been washed with HBSG-BSA, they were then suspended in approximately 5 mL of HBSG-BSA, and 100 of the obtained suspension was then dispensed into each well of a 96-well Collagen Well (TC-PLATE 96 WELL, STERILE WITH LID, IND PACKED). […] One hour later, the amount of active oxygen was measured using Genios fluorescence intensity measurement apparatus.
The above-mentioned H2DCFDA is a fluorescent probe, and its fluorescence intensity is increased in the presence of hydrogen peroxide (H2O2).

| Structure (SMILES) | cytotoxicity to THP-1 cells (survival rate, trypan blue staining) (THP-1 cells [1]) | IL-8 released from THP-1 cells, activity compared with TDCM (THP-1 cells [2]) | action to promote the generation of active oxygen from mouse intraperitoneal macrophages, compared with TDCM [3] |
| --- | --- | --- | --- |
| CCCCCCCCCCC(CCCCCCCCCC)C(=O)OCC1O[C@H](O[C@H]2OC(COC(=O)C(CCCCCCCCCC)CCCCCCCCCC)[C@@H](O)C(O)C2O)C(O)C(O)[C@@H]1O (stereo partly drawn) [Example 1, 6,6′-bis-O-(2-decyldodecanoyl)-α,α′-trehalose] | significant results could be obtained | approximately 0.6 times | two times higher than the activity of TDCM |
| CCCCCCCCCC(CCCCCCCCC)CC(=O)OCC1O[C@H](O[C@H]2OC(COC(=O)CC(CCCCCCCCC)CCCCCCCCC)[C@@H](O)C(O)C2O)C(O)C(O)[C@@H]1O (stereo partly drawn) [Example 9, 6,6′-bis-O-(3-nonyldodecanoyl)-α,α′-trehalose] | cytotoxicity was not observed | approximately 0.8 times | two times higher than the activity of TDCM |
